Assays:
genotype 1b replicon = experiment: Antiviral activity in a genotype 1b replicon assay; format: cell-based, HCV; details: Hepatitis C virus; genotype 1b replicon assay as described in Example 32; read-out: EC50
Method: General procedure: Huh-7 cells containing HCV Con1 subgenomic replicon (GS4.1 cells) were grown in Dulbecco's Modified Eagle Medium (DMEM) supplemented with 10% fetal bovine serum (FBS), 2 mM L-glutamine, 110 mg/L sodium pyruvate, 1× non-essential amino acids, 100 U/mL penicillin-streptomycin, and 0.5 mg/mL G418 (Invitrogen). For dose-response testing, the cells were seeded in 96-well plates at 7.5×10^3 cells/well in a volume of 50 μL, and incubated at 37° C./5% CO2. Three hours after plating, 50 μL of ten 2-fold serial dilutions of compounds (highest concentration, 75 μM) were added, and cell cultures were incubated at 37° C./5% CO2 in the presence of 0.5% DMSO. Alternatively, compounds were tested at a single concentration of 15 μM. In all cases, Huh-7 cells lacking the HCV replicon served as negative control. The cells were incubated in the presence of compounds for 72 hr after which they were monitored for expression of the NS4A protein by enzyme-linked immunosorbent assay (ELISA). For this, the plates were then fixed for 1 min with acetone/methanol (1:1, v/v), washed twice with phosphate-buffered saline (PBS), 0.1% Tween 20, blocked for 1 hr at room temperature with TNE buffer containing 10% FBS and then incubated for 2 hr at 37° C. with the anti-NS4A mouse monoclonal antibody A-236 (ViroGen) diluted in the same buffer. After washing three times with PBS, 0.1% Tween 20, the cells were incubated 1 hr at 37° C. with anti-mouse immunoglobulin G-peroxidase conjugate in TNE, 10% FBS. After washing as described above, the reaction was developed with O-phenylenediamine (Zymed). The reaction was stopped after 30 min with 2 NH2SO4, and absorbance was read at 492 nm using Sunrise Tecan spectrophotometer. EC50 values were determined from the % inhibition versus concentration data using a sigmoidal non-linear regression analysis based on four parameters with Tecan Magellan software. When screening at a single concentration, the results were expressed as % inhibition at 15 μM.
Compounds were tested in a genotype 1b replicon assay as described in Example 32 and the results are summarized in Table 6, wherein A represents a value smaller than 1 μM, and B represents a value between 1 μM to 10 μM, C represents a value between 10 μM to 75 μM and D represents a value greater than 75 μM.

[1] = system: Huh-7 cells containing HCV Con1 subgenomic replicon (GS4.1 cells); experiment: HCV Replicon Assay (NS4A ELISA); format: cell-based; details: Hepatitis C virus, Huh-7, 72 hr, NS4A protein by ELISA
Outline: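 GS4.1 cells (Huh-7 with HCV Con1 subgenomic replicon) given ten 2-fold compound dilutions (top 75 μM) or a single 15 μM dose in 0.5% DMSO for 72 h at 37 °C. NS4A measured by cell ELISA (A492); EC50 from four-parameter sigmoidal fit, single-dose results as % inhibition at 15 μM.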

mutant protease A156S = experiment: Resistance profile, mutant protease A156S; format: biochemical, HCV; details: ratio of inhibitory activity against mutant enzyme over non-mutant enzyme
Method: General procedure: Measurement of the inhibitory effect of compounds on HCV protease activity was performed with the SensoLyte™ 620 HCV Protease Assay kit from AnaSpec, Inc. (San Jose, Calif.) under conditions described by the supplier using 1.2 nM HCV NS3-NS4A protease, which was obtained according to Taremi et al. (Protein Science, 1998, 7, 2143-2149). The compounds were tested at a variety of concentrations in assay buffer containing a final DMSO concentration of 5%. Reactions were allowed to proceed for 60 min at room temperature and fluorescence measurements were recorded with a Tecan Infinity Spectrofluorimeter. The IC50 values were determined from the percent inhibition versus concentration data using a sigmoidal non-linear regression analysis based on four parameters with Tecan Magellan software.
Compounds were evaluated against three mutant proteases R155Q, A156S, and D168A, as summarized in Table 8, wherein A represents a value smaller than 1, and B represents a value between 1 to 10, and C represents a value greater than 10. The fold of change in inhibitory activity was determined by measuring the ratio of the inhibitory activity of a compound against a mutant enzyme over the inhibitory activity of the same compound against non-mutant enzyme. The inhibitory activity was determined using the procedure as described in Example 31.

`COc1ccc2c(O[C@H]3C[C@H]4C(=O)N(C)CCCC/C=C\[C@@H]5C[C@@]5(C(=O)NS(=O)(=O)C5CC5)NC(=O)N4C3)cc(-c3nc(C(C)C)cs3)nc2c1Cl` [Compound 62d, (Z)-(4R,6S,15S,17S)-[17-[8-chloro-7-methoxy-2-(4-isopropylthiazol-2-yl)quinolin-4-yloxy]-13-N-methyl-2,14-dioxo-1,3,13-triazatricyclo[13.3.0.0]octadec-7-en-4-yl]carbonyl(cyclopropyl)sulfonamide] was tested, and the EC50 (genotype 1b replicon) was < 1000 nM, the EC50 [1] was < 1000 nM and the “Fold-Change A156S” value (mutant protease A156S) was “A (A represents a value smaller than 1)”.
